Experimental data taken from ChEMBL document CHEMBL2073794, “Catecholamine transport by the organic cation transporter type 1 (OCT1)” (Br J Pharmacol, 1998).

Each compound was assayed against T1, Solute carrier family 22 member 1 (Rattus norvegicus, UniProt Q63089) (assay: TP_TRANSPORTER: uptake in OCT1-expressing HEK293 cells). Conditions: human.
T1 sequence (Q63089 whole entry): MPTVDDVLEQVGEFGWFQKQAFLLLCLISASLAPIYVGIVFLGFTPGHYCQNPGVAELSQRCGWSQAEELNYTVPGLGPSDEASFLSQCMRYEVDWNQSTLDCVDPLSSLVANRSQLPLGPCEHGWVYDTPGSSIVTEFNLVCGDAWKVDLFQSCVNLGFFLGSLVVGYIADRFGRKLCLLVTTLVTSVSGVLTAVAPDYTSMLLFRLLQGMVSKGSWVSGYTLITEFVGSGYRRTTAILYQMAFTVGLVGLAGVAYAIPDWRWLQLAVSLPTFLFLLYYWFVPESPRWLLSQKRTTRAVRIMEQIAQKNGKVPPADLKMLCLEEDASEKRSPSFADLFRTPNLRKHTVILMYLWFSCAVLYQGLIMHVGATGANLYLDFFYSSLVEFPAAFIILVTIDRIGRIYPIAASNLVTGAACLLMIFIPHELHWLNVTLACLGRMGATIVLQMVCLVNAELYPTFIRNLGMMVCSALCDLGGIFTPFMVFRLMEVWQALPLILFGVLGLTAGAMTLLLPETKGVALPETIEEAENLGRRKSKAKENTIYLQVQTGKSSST
Assay type: functional, cell-based

Activity | Structure (SMILES)
substrate [+] | NCCc1ccc(O)c(O)c1 [DOPAMINE]
substrate [+] | CNC[C@H](O)c1ccc(O)c(O)c1 [EPINEPHRINE]
substrate [+] | NC[C@H](O)c1ccc(O)c(O)c1 [NOREPINEPHRINE]
substrate [+] | CC[N+](CC)(CC)CC [TETRYLAMMONIUM]

Structure (SMILES) | Activity
NCCc1c[nH]c2ccc(O)cc12 [SEROTONIN] | substrate [+]
NCCc1ccc(O)cc1 [TYRAMINE] | substrate [+]
